The source of these data is ChEMBL document CHEMBL3507680, “University of Dundee, Gates Library screen for HepG2 cell viability”.

The nature of this data set: Human HepG2 cell viability assay in 384 well format. Format: toxicity, cell-based. Details: dose 125 nL, time 70.5 hour; concentration not given beside the values. The note with it: HepG2 cells, read-out: Inhibition.
Take `CCO[C@@H]1CC[C@H]2[C@H]1OCCN2Cc1ccc(F)cc1`: the cytotoxicity at 70.5 h is -16.2%.

With `O=C(c1ccc[nH]1)N1Cc2nccn2CC(Cn2ncccc2=O)C1` (stereo not given), the cytotoxicity at 70.5 h was -6.79%.

As to `CC(=O)N1CCC2(CC1)CC(NC(=O)N(C)C)c1cc(C)ccc12` (stereo not given), the cytotoxicity at 70.5 h is -5.6%.

Regarding `C1CC(CN2CC[C@@H]3O[C@@H](c4nnc(C5CC5)o4)C[C@H]3C2)CCO1`, the cytotoxicity at 70.5 h was -9.09%.

For the compound `O=C(NCC1CC1)c1cc2c(s1)CCN2C(=O)c1cccnc1`, the cytotoxicity at 70.5 h was -8.04%.

As to `CO[C@@H]1CC[C@H]2[C@H]1OCCN2S(=O)(=O)C1CC1`, the cytotoxicity at 70.5 h was -9.16%.

As to `Cn1cc(C2CC(=O)NC23CCN(C(=O)NC2CC2)CC3)cn1` (stereo not given), the cytotoxicity at 70.5 h was -6.56%.

Regarding `CN(C)C(=O)N1CCC2(C1)CN(c1cccnc1)C(=O)CN2C` (stereo not given), the cytotoxicity at 70.5 h was -7.38%.

As to `O=C(NCC1CC1)[C@@H]1C[C@@H]2CCN(Cc3ccoc3)C[C@@H]2O1`, the cytotoxicity at 70.5 h was 2.93%.

As for `O=C(NCC1CCCO1)c1nc2c(s1)CCCN2c1ncccn1` (stereo not given), the cytotoxicity at 70.5 h was 24.3%.

For `O=C(c1cnccn1)N1CCN(Cc2cccnc2)c2ncccc2C1`, the cytotoxicity at 70.5 h was -8.24%.

Consider `CN(Cc1cccnc1)[C@@H]1CN(Cc2ccccn2)[C@@H]2CCCO[C@H]12`, for which the cytotoxicity at 70.5 h is -2.2%.

Take `Cc1cccc(CN2C(=O)CCC23CCN(Cc2nccn2C)CC3)n1`: the cytotoxicity at 70.5 h was -4.21%.

For the compound `Cc1ccc(CN2CC[C@H]3OCC[C@@]3(C(=O)N3CCCO3)C2)s1`, the cytotoxicity at 70.5 h is -5.95%.

In the case of `CC1c2ncc(Cn3cncn3)n2CCN1C(=O)N(C)C` (stereo not given), the cytotoxicity at 70.5 h is -7.73%.

For `CC(C)Nc1nc(N2CCCC2)nc2c1CN(c1ncc(F)cn1)CC2`, the cytotoxicity at 70.5 h is -7.8%.

Take `O=C1CC2(CCN(c3nncs3)C2)CN1c1ccccc1` (stereo not given): the cytotoxicity at 70.5 h was -1.13%.

In the case of `Cn1cc(CN2CC[C@@H]3O[C@H](C(=O)N4CCOCC4)C[C@@H]32)cn1`, the cytotoxicity at 70.5 h was -5.63%.

For the compound `CC(C)CC(=O)N1CC[C@@H]2[C@H](CC1)N(S(C)(=O)=O)CCS2(=O)=O`, the cytotoxicity at 70.5 h is -4.28%.

Take `O=C(N[C@@H]1CN(Cc2ccc3c(c2)OCO3)[C@@H]2CCCO[C@@H]21)C1CC1`: the cytotoxicity at 70.5 h is 8.84%.

In the case of `O=C(c1cnccn1)N1CCN(Cc2ccncc2)c2ncccc2C1`, the cytotoxicity at 70.5 h was -5.23%.

For `Cc1oncc1C(=O)N1CCC2(C1)CN(c1cccnc1)C(=O)CN2C` (stereo not given), the cytotoxicity at 70.5 h was -0.201%.

Take `O=C(N[C@@H]1CN(Cc2ccsc2)[C@@H]2CCCO[C@@H]21)C1CC1`: the cytotoxicity at 70.5 h was found to be 9.03%.

Take `COCCNC(=O)c1cc2c(s1)CCN2C(=O)c1ccccc1`: the cytotoxicity at 70.5 h came out at 6.46%.

For the compound `O=C(NCc1ccco1)[C@H]1C[C@H]2OCC[C@H]2N(C(=O)c2ccco2)C1`, the cytotoxicity at 70.5 h is -8.55%.

With `COC(=O)CCC(=O)N1CCC2(CN(Cc3cccc(F)c3)C2)C1`, the cytotoxicity at 70.5 h was 0.281%.

With `CC(C)Nc1nc(N2CCCC2)nc2c1CN(C(C)C)CC2`, the cytotoxicity at 70.5 h stood at 0.846%.

As to `CC(C)NC(=O)C1CN(C(N)=O)Cc2ccnn2C1` (stereo not given), the cytotoxicity at 70.5 h was -17.9%.

For the compound `CN(Cc1ccccn1)C(=O)[C@]12COC[C@H]1CN(Cc1cnn(C)c1)C2`, the cytotoxicity at 70.5 h was -15.4%.

`CCCC(=O)N1CCc2c(CNS(C)(=O)=O)cncc2C1`: the cytotoxicity at 70.5 h was -8.58%.

Take `CS(=O)(=O)NCc1cncc2c1CCN(C(=O)c1cccnc1)C2`: the cytotoxicity at 70.5 h was -5.3%.

With `CC(C)N1CCc2c(CN(C)Cc3ccco3)cncc2C1`, the cytotoxicity at 70.5 h came out at 5.22%.

As for `Cc1nc(CN2CCCC3(CCN(c4cnn(C)c4)C3=O)C2)cs1` (stereo not given), the cytotoxicity at 70.5 h is -11.6%.

In the case of `Cn1ccc(C(=O)N2C[C@@H]3OCCN(c4ncccn4)[C@@H]3C2)n1`, the cytotoxicity at 70.5 h is -12.1%.

Turning to `COc1ccc(CN2CC[C@@H]3[C@H]2CCC(=O)N3c2cnn(C)c2)cc1`, the cytotoxicity at 70.5 h was found to be 5.08%.

For the compound `O=c1cccnn1CC1CN(CC2CCCC2)Cc2nccn2C1` (stereo not given), the cytotoxicity at 70.5 h was -5.89%.

`Cc1ccc2c(c1)C(NC(=O)N(C)C)CC21CCN(C(C)C)CC1` (stereo not given): the cytotoxicity at 70.5 h is -5.2%.

Turning to `c1cncc(N2CCC3(CCCN(c4ccncc4)C3)CC2)c1`, the cytotoxicity at 70.5 h is -6.14%.

In the case of `COCCNC(=O)[C@H]1C[C@@H]2CCN(c3ccncn3)C[C@H]2O1`, the cytotoxicity at 70.5 h stood at 1.69%.

For the compound `Cc1ccc(CN2CC[C@H]3OCC[C@@]3(C(=O)N3CCCO3)C2)o1`, the cytotoxicity at 70.5 h worked out at 2.99%.

For the compound `O=C(c1cnccn1)N1CCCC2(CCN(Cc3ccsc3)C2)C1` (stereo not given), the cytotoxicity at 70.5 h is -5.33%.

Take `O=C(c1cnccn1)N1CC2(CCN(Cc3ccsc3)C2)C1`: the cytotoxicity at 70.5 h was -4.05%.

`Cc1ccsc1CN1CC[C@H]2OCC[C@@]2(C(=O)N2CCCO2)C1`: the cytotoxicity at 70.5 h came out at 22.9%.

Regarding `O=C(N1CCCO1)[C@@]12CCO[C@@H]1CCN(Cc1cccs1)C2`, the cytotoxicity at 70.5 h turned out to be 34.4%.

Take `CCOCC1CN(C(=O)c2cnoc2C)Cc2cnn(C)c21` (stereo not given): the cytotoxicity at 70.5 h was -12.5%.

Consider `CC(=O)NCC(=O)N1CCOC2(CCCN(c3cccnc3)C2)C1` (stereo not given), for which the cytotoxicity at 70.5 h is 14.8%.

Regarding `Cc1nc(N(C)C)nc2c1COCC21CCN(CC2CC2)C1` (stereo not given), the cytotoxicity at 70.5 h stood at 5.56%.

Regarding `O=C([C@@H]1C[C@H]2[C@H](CCN2Cc2nccs2)O1)N1CCOCC1`, the cytotoxicity at 70.5 h is -8.03%.

As to `Cc1ccc(CN2CCC3(CC2)C(=O)N(C)c2ccccc23)s1`, the cytotoxicity at 70.5 h is 0.079%.

For `CC1=N[C@@]2(CC[C@@H]3CN(Cc4ccccc4F)C[C@@H]32)C(=O)N1CC1CC1`, the cytotoxicity at 70.5 h was -0.339%.

As to `CCC1=N[C@@]2(CC[C@@H]3CN(Cc4ccccc4F)C[C@@H]32)C(=O)N1CC`, the cytotoxicity at 70.5 h is -6.42%.

Consider `O=C(NCc1ccco1)[C@@H]1CCO[C@@H]2CCN(c3ccncn3)C[C@H]21`, for which the cytotoxicity at 70.5 h was -2.41%.

As for `O=C(NCC1CCOCC1)[C@@H]1C[C@@H]2CCN(Cc3ccco3)C[C@H]2O1`, the cytotoxicity at 70.5 h is -5.42%.

Take `O=C(N1CCCO1)[C@@]12CCO[C@@H]1CCN(Cc1ccccc1)C2`: the cytotoxicity at 70.5 h was -5%.

For the compound `CN(C)C(=O)N[C@@H]1CN(Cc2ccc3c(c2)OCO3)[C@@H]2CCCO[C@@H]21`, the cytotoxicity at 70.5 h is 3.25%.

For `CCS(=O)(=O)N1CCC[C@]2(C(=O)N(C)C)CN(c3ncccn3)C[C@@H]2C1`, the cytotoxicity at 70.5 h was 11.9%.

In the case of `O=C(c1cnccn1)N1CCOC2(CCN(Cc3ccsc3)CC2)C1`, the cytotoxicity at 70.5 h worked out at 4.24%.

As to `Cn1cc(C2CC(=O)NC23CCN(CC2CC2)CC3)cn1` (stereo not given), the cytotoxicity at 70.5 h was found to be 9.8%.

Turning to `Cc1ccoc1C(=O)N1CCO[C@H]2[C@H](OCCN(C)C)CC[C@@H]21`, the cytotoxicity at 70.5 h is -12.4%.

Take `Cc1ccc(CN2CCc3ncnc(-c4ccc(F)cc4)c3CC2)o1`: the cytotoxicity at 70.5 h is -14.6%.

As for `O=C(c1ccnnc1)N1CCN2C[C@H](Oc3cccc(F)c3)C[C@H]2C1`, the cytotoxicity at 70.5 h is -5.78%.

With `c1nc(COCC2CC2)c2n1CCCN(CC1CC1)C2`, the cytotoxicity at 70.5 h was -18.3%.

Consider `CC[C@@H]1N(CC2CC2)CCC[C@]12CCC(=O)N2CCOC`, for which the cytotoxicity at 70.5 h is -9.87%.

For `Cc1nc(COCc2cnc3n2CCN(C2CCC2)C3C)cs1` (stereo not given), the cytotoxicity at 70.5 h is -12.4%.

For the compound `Cc1nc(COCc2cnc3n2CCN(CC2CCC2)C3C)cs1` (stereo not given), the cytotoxicity at 70.5 h was -5.9%.

As for `Cc1cc(C(=O)N2CCC3(C2)CN(c2cccnc2)C(=O)CN3C)[nH]n1` (stereo not given), the cytotoxicity at 70.5 h is -10.2%.

As to `Cc1cccc(CN2CCc3cc(C(=O)O)c(N(C)C)nc3CC2)n1`, the cytotoxicity at 70.5 h is -5.66%.

`CC(C)Nc1nc2c(cc1C(=O)O)CCN(Cc1ccsc1)CC2`: the cytotoxicity at 70.5 h was -6.73%.

As to `O=C(NCc1cccnc1)[C@H]1C[C@@H]2CCN(c3ccncn3)C[C@H]2O1`, the cytotoxicity at 70.5 h is -5.01%.

`CCCN1CC[C@@H]2OC[C@H](C(=O)Nc3cccnc3)C[C@@H]2C1`: the cytotoxicity at 70.5 h was 2.64%.

On to `CN(Cc1cccnc1)[C@@H]1CN(C(=O)CC2CC2)[C@@H]2CCCO[C@H]12`, for which the cytotoxicity at 70.5 h was determined as 0.0586%.

With `COCCN1CCC2(CCC(=O)N2Cc2csc(C)n2)CC1`, the cytotoxicity at 70.5 h was -7.09%.

On to `O=C(N1CCCC1)N1CCN(Cc2cccnc2)c2ncccc2C1`, for which the cytotoxicity at 70.5 h is -10.8%.

With `O=C(CC1CC1)N1CCN(Cc2cccnc2)c2ncccc2C1`, the cytotoxicity at 70.5 h was -9.33%.

Take `Cc1nc(CN2C(=O)CCC23CCN(Cc2ccccn2)CC3)cs1`: the cytotoxicity at 70.5 h was -6.85%.

Consider `c1ccc(CN2CC[C@H]3CO[C@H](CNc4ncccn4)[C@H]3C2)cc1`, for which the cytotoxicity at 70.5 h was -5.27%.

Take `Cn1ccnc1CN1CCC2(CCC(=O)N2CCN2CCCC2)CC1`: the cytotoxicity at 70.5 h was -8.64%.

In the case of `CN(C)CCOCc1nnc2n1CCN(Cc1ccco1)CC2`, the cytotoxicity at 70.5 h is -4.62%.

For `CC(C)COCC1CN(Cc2ccc3c(c2)OCO3)Cc2ncn(C)c21` (stereo not given), the cytotoxicity at 70.5 h came to 45.7%.

As for `Cc1ccc(CN2CCC3(CC2)CC(c2cccnc2)CO3)s1` (stereo not given), the cytotoxicity at 70.5 h is 2.33%.

As for `CCCC(=O)N1CC[C@@H]2[C@H](CC1)N(Cc1cccnc1)CCS2(=O)=O`, the cytotoxicity at 70.5 h turned out to be 4.18%.

On to `O=C(Nc1cccnc1)[C@H]1C[C@@H]2CCN(c3nncs3)C[C@H]2O1`, for which the cytotoxicity at 70.5 h was -1.35%.

Turning to `O=C(Nc1cccnc1)[C@H]1CO[C@H]2CCN(c3ncc(F)cn3)C[C@H]2C1`, the cytotoxicity at 70.5 h was found to be 4.85%.

In the case of `CC(=O)N1CCOCC2(CN(Cc3ccccn3)CCO2)C1` (stereo not given), the cytotoxicity at 70.5 h is -9.92%.

With `CN(Cc1cncnc1)[C@H]1CN(CC2CC2)[C@@H]2CCCO[C@@H]21`, the cytotoxicity at 70.5 h was -5.03%.

Regarding `c1cnc(NC[C@H]2OC[C@@H]3CCN(Cc4cccnc4)C[C@@H]32)nc1`, the cytotoxicity at 70.5 h is -12.6%.

On to `c1cnc(NC[C@H]2OC[C@@H]3CCN(Cc4nccs4)C[C@@H]32)nc1`, for which the cytotoxicity at 70.5 h was found to be 21.4%.

On to `c1ccc(CN2CC[C@@H]3[C@@H](CO[C@@H]3CNc3ncccn3)C2)nc1`, for which the cytotoxicity at 70.5 h was -7.29%.

As for `CC(C)N(C)Cc1nnc2n1CCN(Cc1ccncc1)CC2`, the cytotoxicity at 70.5 h is -3.24%.

Take `Cn1cnc2c1C(COCc1ccccc1)N(Cc1ccncc1)CC2` (stereo not given): the cytotoxicity at 70.5 h is -3.01%.
